Data as given in PubChem BioAssay AID1963854 (Molecular Pharmacology Branch, DTP, NCI, 2024).

System: 186277-243-T-J2-PDC complex spheroid viability
Test: Anticancer human tumor 186277-243-T-J2-PDC patient-derived colon adenocarcinoma cell line growth inhibition [POLQ]
Conditions: for IC50: curve of first compound; for viability, T/C: stronger effect = lower value
Method in brief: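 Patient-derived tumour cells were co-cultured with HUVEC and mesenchymal stem cells as multicellular spheroids at 37 °C. They were treated with POLQ inhibitors (novobiocin, ART-558, RP6685) alone or combined with other agents. Top concentrations were at or near clinical Cmax (otherwise 10 microM; SN-38 at 1 microM), decreasing in half-log steps.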

[1] = second compound 0.0316 µM, first compound 0.0316 µM
[2] = second compound 0.0316 µM, first compound 0.1 µM
[3] = second compound 0.0316 µM, first compound 0.316 µM
[4] = second compound 0.0316 µM, first compound 1 µM
[5] = second compound 0.0316 µM, first compound 3.16 µM
[6] = second compound 0.0316 µM, first compound 10 µM
[7] = second compound 0.1 µM, first compound 0.0316 µM
[8] = second compound 0.1 µM, first compound 0.1 µM
[9] = second compound 0.1 µM, first compound 0.316 µM
[10] = second compound 0.1 µM, first compound 1 µM
[11] = second compound 0.1 µM, first compound 3.16 µM
[12] = second compound 0.1 µM, first compound 10 µM
[13] = second compound 0.316 µM, first compound 0.0316 µM
[14] = second compound 0.316 µM, first compound 0.1 µM
[15] = second compound 0.316 µM, first compound 0.316 µM
[16] = second compound 0.316 µM, first compound 1 µM
[17] = second compound 0.316 µM, first compound 3.16 µM
[18] = second compound 0.316 µM, first compound 10 µM
[19] = second compound 1 µM, first compound 0.0316 µM
[20] = second compound 1 µM, first compound 0.1 µM
[21] = second compound 1 µM, first compound 0.316 µM
[22] = second compound 1 µM, first compound 1 µM
[23] = second compound 1 µM, first compound 3.16 µM
[24] = second compound 1 µM, first compound 10 µM
[25] = second compound 3.16 µM, first compound 0.0316 µM
[26] = second compound 3.16 µM, first compound 0.1 µM
[27] = second compound 3.16 µM, first compound 0.316 µM
[28] = second compound 3.16 µM, first compound 1 µM
[29] = second compound 3.16 µM, first compound 3.16 µM
[30] = second compound 3.16 µM, first compound 10 µM
[31] = second compound 10 µM, first compound 0.0316 µM
[32] = second compound 10 µM, first compound 0.1 µM
[33] = second compound 10 µM, first compound 0.316 µM
[34] = second compound 10 µM, first compound 1 µM
[35] = second compound 10 µM, first compound 3.16 µM
[36] = second compound 10 µM, first compound 10 µM
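Further: spheroids exposed to compounds for seven days.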
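Wherever viability, T/C is given: 100% = DMSO vehicle control viability.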

Work on COc1ccc([C@@H](O)c2cc(-c3ncnc4cc(N5CCOCC5)ccc34)c(F)cc2Cl)nn1 + COC1C(OC(N)=O)C(O)C(Oc2ccc3c(O)c(NC(=O)c4ccc(O)c(CC=C(C)C)c4)c(=O)oc3c2C)OC1(C)C yielded an IC50 (second compound 0.0316 µM) of 6.3 µM, an IC50 (second compound 0.1 µM) of 5.61 µM and an IC50 (second compound 0.316 µM) of 5.55 µM. For the same compound, the IC50 (second compound 1 µM) was 6.16 µM, the IC50 (second compound 3.16 µM) was 5.34 µM and the IC50 (second compound 10 µM) was 5.67 µM. For the same compound, the viability, T/C [1] was 102%, the viability, T/C [2] was 97.2% and the viability, T/C [3] was 109%. The viability, T/C [4] was 95.2%, the viability, T/C [5] was 79% and the viability, T/C [6] was 30.7%. The viability, T/C [7] was 103%, the viability, T/C [8] was 92.2% and the viability, T/C [9] was 106%. For the same compound, the viability, T/C [10] was 99.2%, the viability, T/C [11] was 72.6% and the viability, T/C [12] was 27.1%. It also gave a viability, T/C [13] of 102%, a viability, T/C [14] of 108% and a viability, T/C [15] of 108%. It also gave a viability, T/C [16] of 110%, a viability, T/C [17] of 71.1% and a viability, T/C [18] of 27.9%. It also gave a viability, T/C [19] of 90.9%, a viability, T/C [20] of 101% and a viability, T/C [21] of 113%. It also gave a viability, T/C [22] of 110%, a viability, T/C [23] of 78% and a viability, T/C [24] of 29.7%. For the same compound, the viability, T/C [25] was 106%, the viability, T/C [26] was 103% and the viability, T/C [27] was 108%. The viability, T/C [28] was 116%, the viability, T/C [29] was 70% and the viability, T/C [30] was 26.1%. For the same compound, the viability, T/C [31] was 108%, the viability, T/C [32] was 101% and the viability, T/C [33] was 109%. The viability, T/C [34] was 101%, the viability, T/C [35] was 72.6% and the viability, T/C [36] was 28%.

CC[C@@]1(O)C(=O)OCc2c1cc1n(c2=O)Cc2cc3c(CN(C)C)c(O)ccc3nc2-1 + Nc1ccc(C#CCN(C(=O)Cc2ncc(C(F)(F)F)cc2C(F)(F)F)c2ccc(F)cc2)nn1 was tested, and the IC50 (second compound 0.0316 µM) was > 0.1 µM, the IC50 (second compound 0.1 µM) was > 0.1 µM and the IC50 (second compound 0.316 µM) was > 0.1 µM. For the same compound, the IC50 (second compound 1 µM) was > 0.1 µM, the IC50 (second compound 3.16 µM) was > 0.1 µM and the IC50 (second compound 10 µM) was > 0.1 µM. It also gave a viability, T/C (second compound 0.0316 µM, first compound 0.000316 µM) of 114%, a viability, T/C (second compound 0.0316 µM, first compound 0.001 µM) of 98% and a viability, T/C (second compound 0.0316 µM, first compound 0.00316 µM) of 123%. The viability, T/C (second compound 0.0316 µM, first compound 0.01 µM) was 114%, the viability, T/C [1] was 136% and the viability, T/C [2] was 91.7%. For the same compound, the viability, T/C (second compound 0.1 µM, first compound 0.000316 µM) was 109%, the viability, T/C (second compound 0.1 µM, first compound 0.001 µM) was 93.8% and the viability, T/C (second compound 0.1 µM, first compound 0.00316 µM) was 90.6%. It also gave a viability, T/C (second compound 0.1 µM, first compound 0.01 µM) of 129%, a viability, T/C [7] of 128% and a viability, T/C [8] of 88.1%. The viability, T/C (second compound 0.316 µM, first compound 0.000316 µM) was 92.9%, the viability, T/C (second compound 0.316 µM, first compound 0.001 µM) was 87.2% and the viability, T/C (second compound 0.316 µM, first compound 0.00316 µM) was 108%. The viability, T/C (second compound 0.316 µM, first compound 0.01 µM) was 133%, the viability, T/C [13] was 124% and the viability, T/C [14] was 83.8%. It also gave a viability, T/C (second compound 1 µM, first compound 0.000316 µM) of 97.3%, a viability, T/C (second compound 1 µM, first compound 0.001 µM) of 105% and a viability, T/C (second compound 1 µM, first compound 0.00316 µM) of 117%. For the same compound, the viability, T/C (second compound 1 µM, first compound 0.01 µM) was 115%, the viability, T/C [19] was 130% and the viability, T/C [20] was 81.1%. For the same compound, the viability, T/C (second compound 3.16 µM, first compound 0.000316 µM) was 89.2%, the viability, T/C (second compound 3.16 µM, first compound 0.001 µM) was 91.5% and the viability, T/C (second compound 3.16 µM, first compound 0.00316 µM) was 104%. The viability, T/C (second compound 3.16 µM, first compound 0.01 µM) was 122%, the viability, T/C [25] was 124% and the viability, T/C [26] was 79.9%. The viability, T/C (second compound 10 µM, first compound 0.000316 µM) was 111%, the viability, T/C (second compound 10 µM, first compound 0.001 µM) was 89.7% and the viability, T/C (second compound 10 µM, first compound 0.00316 µM) was 116%. It also gave a viability, T/C (second compound 10 µM, first compound 0.01 µM) of 121%, a viability, T/C [31] of 107% and a viability, T/C [32] of 70.6%.

Compound COc1cc(C2c3cc4c(cc3C(OC3OC5COC(C)OC5C(O)C3O)C3COC(=O)C23)OCO4)cc(OC)c1O (stereo not drawn) + Nc1ccc(C#CCN(C(=O)Cc2ncc(C(F)(F)F)cc2C(F)(F)F)c2ccc(F)cc2)nn1 has an IC50 (second compound 0.0316 µM) of 4.57 µM, an IC50 (second compound 0.1 µM) of 3.96 µM and an IC50 (second compound 0.316 µM) of 3.19 µM. It also gave an IC50 (second compound 1 µM) of 3.74 µM, an IC50 (second compound 3.16 µM) of 3.6 µM and an IC50 (second compound 10 µM) of 2.63 µM. The viability, T/C [1] was 96.2%, the viability, T/C [2] was 104% and the viability, T/C [3] was 128%. For the same compound, the viability, T/C [4] was 93.6%, the viability, T/C [5] was 60.5% and the viability, T/C [6] was 29.7%. The viability, T/C [7] was 93.7%, the viability, T/C [8] was 127% and the viability, T/C [9] was 137%. For the same compound, the viability, T/C [10] was 86.9%, the viability, T/C [11] was 59.7% and the viability, T/C [12] was 28.1%. The viability, T/C [13] was 97.8%, the viability, T/C [14] was 106% and the viability, T/C [15] was 135%. It also gave a viability, T/C [16] of 80%, a viability, T/C [17] of 55.9% and a viability, T/C [18] of 28.1%. For the same compound, the viability, T/C [19] was 92.2%, the viability, T/C [20] was 115% and the viability, T/C [21] was 123%. The viability, T/C [22] was 79%, the viability, T/C [23] was 58.3% and the viability, T/C [24] was 28.4%. The viability, T/C [25] was 108%, the viability, T/C [26] was 110% and the viability, T/C [27] was 125%. For the same compound, the viability, T/C [28] was 74.6%, the viability, T/C [29] was 59.8% and the viability, T/C [30] was 24.4%. It also gave a viability, T/C [31] of 109%, a viability, T/C [32] of 116% and a viability, T/C [33] of 102%. It also gave a viability, T/C [34] of 65.9%, a viability, T/C [35] of 52.6% and a viability, T/C [36] of 24.3%.

Work on COc1cc(C2c3cc4c(cc3C(OC3OC5COC(C)OC5C(O)C3O)C3COC(=O)C23)OCO4)cc(OC)c1O (stereo not drawn) + COC1C(OC(N)=O)C(O)C(Oc2ccc3c(O)c(NC(=O)c4ccc(O)c(CC=C(C)C)c4)c(=O)oc3c2C)OC1(C)C yielded an IC50 (second compound 0.0316 µM) of 0.727 µM, an IC50 (second compound 0.1 µM) of 0.739 µM and an IC50 (second compound 0.316 µM) of 0.659 µM. It also gave an IC50 (second compound 1 µM) of 0.662 µM, an IC50 (second compound 3.16 µM) of 0.56 µM and an IC50 (second compound 10 µM) of 0.71 µM. The viability, T/C [1] was 112%, the viability, T/C [2] was 128% and the viability, T/C [3] was 76.6%. The viability, T/C [4] was 40.9%, the viability, T/C [5] was 25.7% and the viability, T/C [6] was 11.6%. The viability, T/C [7] was 98.8%, the viability, T/C [8] was 113% and the viability, T/C [9] was 69.9%. The viability, T/C [10] was 42.1%, the viability, T/C [11] was 27.3% and the viability, T/C [12] was 11.9%. The viability, T/C [13] was 114%, the viability, T/C [14] was 116% and the viability, T/C [15] was 67.9%. The viability, T/C [16] was 39.7%, the viability, T/C [17] was 24.6% and the viability, T/C [18] was 11.8%. The viability, T/C [19] was 118%, the viability, T/C [20] was 120% and the viability, T/C [21] was 65.3%. For the same compound, the viability, T/C [22] was 42.3%, the viability, T/C [23] was 25.5% and the viability, T/C [24] was 12.4%. For the same compound, the viability, T/C [25] was 113%, the viability, T/C [26] was 124% and the viability, T/C [27] was 65.1%. For the same compound, the viability, T/C [28] was 37.6%, the viability, T/C [29] was 25.3% and the viability, T/C [30] was 11.3%. The viability, T/C [31] was 120%, the viability, T/C [32] was 110% and the viability, T/C [33] was 69.6%. For the same compound, the viability, T/C [34] was 40.3%, the viability, T/C [35] was 26.8% and the viability, T/C [36] was 11.8%.
